We go through one compound from patent US20260216138A1, “IDENTIFICATION OF OTUD7B INHIBITOR 7BI AND ITS APPLICATION IN REDUCING GROWTH OF NSCLC AND LEUKEMIA CELLS” (The University of North Carolina at Chapel Hill, priority 2023, published 2026).

One experiment concerns Akt-pS473. The experiment is described as follows: Akt-pS473 western blotting in NSCLC cells (A549, H358, H520, H1299). It is filed as cell-based. On the procedure: (§1) Cells were harvested and lysed in EBC buffer (50 mM Tris pH 7.5, 120 mM NaCl, 0.5% NP-40) supplemented with protease inhibitor cocktail (EDTA-free, mini-tablet) (Bimake) and phosphatase inhibitor cocktail (Bimake) by rotating in the cold room for 10 min followed by high-speed centrifugation at 4° C. The protein concentrations in supernatants of whole cell lysates were measured by NanoDrop OneC using the Bio-Rad Bradford protein assay reagent. Equal amounts of whole cell lysates were resolved on SDS-PAGE and immunoblotted with indicated antibodies. For immunoprecipitation analysis, 1 mg of total cell lysate was incubated with the indicated beads for 3-4 hr at 4° C. The recovered immuno-complexes were washed thoroughly three times with NETN buffer (20 mM Tris, pH 8.0, 100 mM NaCl, 1 mM EDTA and 0.5% NP-40) before being resuspended in SDS sample buffer and resolved on SDS-PAGE and immunoblotted with indicated antibodies.
Next, we used two approaches to search for possible OTUD7B inhibitors by monitoring Akt-pS473 changes including Akt-pS473 ELISA and western blotting in A549 cells treated with each of these 59 small molecules for 16 hrs at a concentration of 10 uM (FIG. 1A). In Akt-pS473 ELISA assays using Torin 2 (a pan-mTOR inhibitor) as a positive control and DMSO as a negative control (FIG. 1E), we found 15 compounds with an inhibitory ability above 30% (FIG. 1F). […]
(In general: A western blot detects proteins with antibodies after separation by electrophoresis.)

The next experiment deals with T1, OTUD7B (Homo sapiens, UniProt Q6GQQ9).
T1 construct: OTUD7B (residues 56-446); GST (N, cleaved yes); made in house; host or cells: E. coli BL21-Codon Plus (DE3)-RIL
T1 sequence (Q6GQQ9 56-446): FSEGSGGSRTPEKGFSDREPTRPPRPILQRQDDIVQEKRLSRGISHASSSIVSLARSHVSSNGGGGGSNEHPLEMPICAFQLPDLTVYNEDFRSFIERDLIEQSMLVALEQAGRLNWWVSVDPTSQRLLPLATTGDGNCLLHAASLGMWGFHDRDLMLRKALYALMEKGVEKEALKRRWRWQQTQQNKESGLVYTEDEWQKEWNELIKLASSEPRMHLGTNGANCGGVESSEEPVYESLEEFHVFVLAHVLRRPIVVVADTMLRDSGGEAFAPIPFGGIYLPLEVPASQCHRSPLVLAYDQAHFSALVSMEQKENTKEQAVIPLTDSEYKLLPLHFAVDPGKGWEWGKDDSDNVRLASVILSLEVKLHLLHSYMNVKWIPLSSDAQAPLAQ
The experiment is described as follows: In vitro OTUD7B deubiquitination assay, K11-linked di-ub cleavage. The format is biochemical. An excerpt:
OTUD7B (residues 56-446), OTUD7A (residues 1-462), USP21 (residues 196-565), and USP9X (residues 1551-1970) proteins were expressed in E. Coli BL21-Codon Plus (DE3)-RIL cells. Through an N-terminal GST tag, the DUBs were purified by affinity chromatography using glutathione sepharose 4B (GS4B) resin. Following the liberation of the DUB from the GST tag. the DUBs were subjected to size exclusion chromatography (SEC). To form the K11-linked di-ub, individual ubiquitins (K11R-substituted donor Ub and ΔGG acceptor ubiquitin) were purified and fluorescently-labeled on an N-terminal cysteine using either Cy3- (donor) or Cy5-maleimide (acceptor). The different ubiquitins were then added to a mixture containing UBA1, UBE2S, and MgATP to form di-ub. After an overnight incubation at room temperature, UBE2S was removed by cation-exchange chromatography and the di-ub was purified by SEC. These proteins were used to monitor DUB activity in the presence or absence of the various inhibitors. The inhibitors were incubated with DUBs in a reaction buffer (20 mM Hepes pH=8.0, 200 mM NaCl, 0.25 mg/mL BSA and 0.005% Tween-20) for 5 min at room temperature and then 0.5 uM fluorescently-labeled di-ub (K11-linked) was added to start the reaction. 5×SDS-PAGE loading buffer was used to quench the reaction at the indicated time point. […] Mono-ubiquitin was quantified to generate an IC50 value. […]

Experiment [1] has as its system GβL binding with mTORC2 components (Sin1, Rictor, mTOR). Put plainly: GβL binding with mTORC2 components (HA-IP, HEK293 cells). The settings on record: indicated doses of 7Bi, 16 hrs. It is filed as cell-based. The procedure:
as §1

Broadly, the IC50 is the midpoint of a concentration-inhibition curve. As for `Cc1cc(NC(=O)c2cnn(C)c2C(=O)Nc2cc(C)nn2C2CCCC2)n(C2CCCC2)n1` [7Bi], the “suppressing Akt-pS473 signal in at least 3 out of 4 NSCLC lines tested” value in the experiment on Akt-pS473 (A549, H358, H520, H1299, 10 uM for 16 hrs, dose- and time-dependent) is “showed effects in suppressing Akt-pS473 signal”. The 50% inhibitory concentration (IC50) in the experiment on Akt-pS473 (NSCLC cells, read-out: IC50 values to inhibit Akt-pS473 signals) was 1 to 10 µM; on OTUD7B (0.5 uM K11-diub and 5 nM active OTUD7B, 10 min, read-out: IC50, OTUD7B catalytic activity), about 40 µM. In addition, the “suppression of OTUD7B-mediated K11-diub cleavage by purified 7Bi” value on OTUD7B (HPLC purified 7Bi (~99% purity) compared with 90% purity) was “retained its ability to suppress OTUD7B-mediated K11-diub cleavage in vitro”. For the same compound, in experiment [1], the “GβL binding with mTORC2 components (Sin1, Rictor, mTOR)” value is “attenuated GβL binding with mTORC2 components”.
